Consider three compounds from patent US7037907B1 (The University of Melbourne, priority 1999, dated 2006).

For series [1], the target named is purified E. Coli-derived β-glucuronidase (Escherichia coli, UniProt P05804). Briefly: Susceptibility of 2-MEG to metabolism by E. Coli β-glucuronidase (HPLC). Format: in vitro ADME. The following applies: incubation with E. Coli β-glucuronidase for 16 hours in Tyrodes buffer.
Description: (§2) At the end of these incubation periods, extraction was carried out by using 100 μl of reaction mixture with 200 μl of acetontrile (ACN) followed by the addition of 5 μl 2M HCL, vortexing and centrifugation at 1500 g (ambient temperature). Samples of enzyme incubates or quality control incubates were then chilled at −20° C. for at least 10 min, prior to removal of 120 μl of the upper (ACN) phase which is added to 120 μl distilled H2O. One hundred μl of this extract was injected into a Hewlett Packard Series 1050 HPLC fitted with a C18 analytical column (Hypersil ODS 3 μM, 4.6×150 mm) guarded by a pre column (Alltech Hypersil ODS 3 μM; 4.6×7.6 mm) and metabolites were detected with a Hewlett Packard 1046A fluorescence detector (I excitation 270 nm, emission, 320 nm). Metabolites were separated in a mobile phase of ACN buffer of 40:60 (buffer comprised 20 mM NaH2 PO4, 0.02% orthophosphoric acid, pH 3.1–3.2) at a flow rate of 0.7 ml/min. for the first 4 min with a linear gradient to a mobile phase of ACN: buffer (76:24) at 4.5 min. which was maintained for the remainder of the separation (10 min).
The test system of series [2] is Human Airway Smooth Muscle cells. Briefly: Human airway smooth muscle cell number. Type of series: cell-based. The following applies: compound 10 μM. The source says:
(§1) Human airway fibroblasts were obtained from volunteers in a follow-up of the Melbourne Epidemiological Survey of Childhood Asthma (MESCA) (Oswald et al., 1994) initially recruited at age 7 in 1965 and now 42 years old. Volunteers underwent bronchial biopsy which provided tissue samples of epithelium and mucosa of approximately 2 mm^3. These specimens were dissected to remove the epithelium and placed in plastic culture plates. Fibroblasts grew by explant culture over a six week period when maintained according to previously described methods (Zhang et al., 1996). Cells were seeded at subconfluent densities onto six cell plates and after 72 hours were rendered quiescent by serum deprivation. Twenty four hours after serum removal, cells were exposed to thrombin (0.3 U/ml) together with a serum-free medium supplement containing insulin, transferrin and selenium. Cells were harvested by incubation with Trypsin (0.5% w/v) for 10 min. or until a single cell suspension was produced. Cell numbers were then determined using a haemocytometer.
Smooth muscle cells were obtained from airways resected from lung transplant recipients and cultured as previously described in detail (Fernandes et al., 1999). Cell numbers were determined in experiments of the same design as those described for human airway fibroblasts with the additional stimulus of 1% (v/v) fetal calf serum (FCS) being evaluated. In addition, [^3H]-thymidine incorporation was determined between 24 and 28 hours after the addition of thrombin to determine DNA synthesis (Fernandes et al. 1999).

Series [3] deals with Airway smooth muscle cells. Briefly: Shape change of cultured airway smooth muscle cells. Type of series: cell-based, human. The settings on record: 72 hours in culture, 5% FCS, 10 micro M.
Series [4] has as its system A549 cells. Briefly: A549 cell DNA synthesis ([3H]-thymidine). Type of series: cell-based. The settings on record: 5% fetal calf serum, 10 micromolar, [3H]-thymidine 24 hours after addition. The protocol:
A549 cells were maintained in DMEM containing 5% fetal calf serum and undergoing asynchronous proliferation. DNA synthesis was determined by the addition of [3H]-thymidine 24 hours after the addition of one of 2-methoxyestradiol, 6-oxo-2-methoxyestradiol and 2-methoxyestradiol-17β-D-glucuronide.

The text on series [5]:
The octanol:water partition co-efficient is a measure of the relative aqueous and lipid solubility of a compound.

The conditions of series [6]: incubation with rat renal homogenates for 5.5 hours in Tyrodes buffer.
Description: as §2
Series [7] addresses T1, estrogen receptor (rat uterine cytosol) (Rattus norvegicus, UniProt P06211).
T1 sequence (P06211 1-600): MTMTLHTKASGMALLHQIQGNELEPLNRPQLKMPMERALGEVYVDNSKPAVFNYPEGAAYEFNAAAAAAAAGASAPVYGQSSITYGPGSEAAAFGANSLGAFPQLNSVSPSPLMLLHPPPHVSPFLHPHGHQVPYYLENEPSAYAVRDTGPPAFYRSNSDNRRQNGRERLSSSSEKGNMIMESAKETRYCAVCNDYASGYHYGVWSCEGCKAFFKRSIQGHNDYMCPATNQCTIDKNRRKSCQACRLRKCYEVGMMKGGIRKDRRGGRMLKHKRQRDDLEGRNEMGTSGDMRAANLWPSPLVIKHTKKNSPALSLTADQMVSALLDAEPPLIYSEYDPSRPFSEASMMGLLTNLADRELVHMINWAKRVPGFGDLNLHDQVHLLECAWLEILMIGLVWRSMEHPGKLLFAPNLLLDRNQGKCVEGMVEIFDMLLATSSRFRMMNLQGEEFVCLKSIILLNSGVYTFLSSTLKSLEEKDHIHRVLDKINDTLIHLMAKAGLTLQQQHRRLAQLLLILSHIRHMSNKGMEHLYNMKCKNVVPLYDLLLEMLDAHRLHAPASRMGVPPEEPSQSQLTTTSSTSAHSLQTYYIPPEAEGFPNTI

Series [8] has as its system Human airway fibroblasts. The series can be described thus: Human airway fibroblast cell number (haemocytometer). Format: cell-based. The following applies: stimulus Thrombin (0.3 U/ml), compound 10 μM.
Description: as §1

For series [9], the target named is T1, estrogen receptor (rat uterine cytosol). Briefly: biochemical.

Where “and” joins values, the source holds several entries; their conditions need not be identical. Equal entries are not always repeated.

purified E. Coli-derived β-glucuronidase, sequence (P05804 whole entry): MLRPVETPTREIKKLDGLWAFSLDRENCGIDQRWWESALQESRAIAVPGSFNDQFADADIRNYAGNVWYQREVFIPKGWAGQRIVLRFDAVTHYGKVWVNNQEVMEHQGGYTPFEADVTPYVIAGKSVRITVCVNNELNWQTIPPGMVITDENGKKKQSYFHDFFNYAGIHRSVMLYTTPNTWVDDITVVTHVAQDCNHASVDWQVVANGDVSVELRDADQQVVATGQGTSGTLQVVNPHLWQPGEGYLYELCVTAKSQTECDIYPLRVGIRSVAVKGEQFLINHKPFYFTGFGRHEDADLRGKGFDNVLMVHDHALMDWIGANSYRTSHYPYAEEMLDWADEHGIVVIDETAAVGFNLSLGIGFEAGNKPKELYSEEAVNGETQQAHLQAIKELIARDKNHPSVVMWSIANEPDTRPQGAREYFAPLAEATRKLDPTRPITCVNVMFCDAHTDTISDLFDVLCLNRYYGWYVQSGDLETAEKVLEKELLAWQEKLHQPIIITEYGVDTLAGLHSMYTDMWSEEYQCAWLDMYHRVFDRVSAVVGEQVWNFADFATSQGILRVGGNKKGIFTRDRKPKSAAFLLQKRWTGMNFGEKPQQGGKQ

For the compound `COc1cc2c(cc1O)CC[C@@H]1[C@@H]2CC[C@]2(C)[C@@H](O[C@@H]3O[C@H](C(=O)O)[C@@H](O)[C@H](O)[C@H]3O)CC[C@@H]12` [2-MEG, 2-Methoxyestradiol-17-b-D-glucopyranosiduronic acid], the “conversion of 2-MEG to 2-MEO” value in [1] is around 20%; in series [6], around 6%. The “Cell Number (% control)” value is 47 ± 16, n = 5 % control in series [2] (stimulus FCS (1%, v/v)) and 29 ± 8, n = 12 % control in [2] (stimulus Thrombin (0.3 U/ml)). The cell shape change entry in [3] is recorded as “not detected”. Further, the “effect on DNA synthesis” value in [4] is recorded as “ineffective”. The compound further gave an octanol/water partition coefficient in [5] (1-octanol/water, fluorescence spectroscopy) of 0.372. The “aqueous solubility relative to 2-MEO” value in [5] (inferred from partition coefficients) is “approximately 25 times”. Also, the logP in series [5] (octanol/water) is −0.429. In addition, in series [7] (rat uterine cytosol, [3H]estradiol displacement), the “affinity for estrogen receptors relative to 2-MEO (from logIC50 values)” value is reported as 1/50.
`COc1cc2c(cc1O)CCC1C2CCC2(C)C(O)CCC12` (stereo not drawn) [2-MEO, 1,3,5(10)-estratriene-3,17βdiol 2 methyl ether, reference compound]: the “Cell Number (% control)” value in series [8] is 12±8 % control and 12 ± 8, n = 7 % control; in series [2] (stimulus FCS (1%, v/v)), 25 ± 9, n = 5 % control; in series [2] (stimulus Thrombin (0.3 U/ml)), 14 ± 12, n = 10 % control. Further, in [3], the cell shape change result is on record as “readily discernible shape change”. Also, the “effect on DNA synthesis” value in [4] is “reduce DNA synthesis significantly”. For the same compound, the “displacement of [3H]estradiol at highest concentration” value in series [7] (10 μM displacer) is given as “incomplete response”. The same compound showed a half-inhibitory concentration (IC50) in series [9] of around 100 nM.
On to `COc1cc2c(cc1O)C(=O)C[C@@H]1[C@@H]2CC[C@]2(C)[C@@H](O)CC[C@@H]12` [6-oxo-2-methoxyestradiol, 6-Oxo-2-methoxyestradiol], for which, in series [4], the “effect on DNA synthesis” value was “reduce DNA synthesis significantly”.

The logP is the decadic logarithm of the partition coefficient of the neutral form, usually between octanol and water. As a reminder, the IC50 is the concentration that inhibits the measured activity by half.
